Laboratory results: patent publication US11590116B2 (THERAVANCE BIOPHARMA R&D IP, LLC, priority 2019, dated 2023)
Read-outs that look alike come from different tables or passages of the source.

Experiments:
[1] = tested on: TGF-β-stimulated SMAD3 phosphorylation in BEAS-2B cells; assay: Cellular ALK5 potency assay, inhibition of TGF-β stimulated pSMAD3 formation in BEAS-2B cells; assay type: cell-based; conditions: Homo sapiens, read-out: BEAS2B pIC50 (converted)
Summary of the method: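 BEAS-2B human lung epithelial cells pre-treated 1 h at 37° C with compound in HBSS/25 mM HEPES/1% BSA, then stimulated 30 min with 10 ng/mL TGF-β (final). Lysates assayed for pSMAD3 by AlphaLISA; pIC50 from dose-dependent change versus stimulated untreated cells.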

[2] = biological target: T1, recombinant human ALK5 (TGF-βR1) protein (Homo sapiens, UniProt P36897); assay: Biochemical ALK5 (TGF-βR1) assay to measure pKi (LANCE Ultra ULight kinase assay); conditions: apparent pKi from pIC50 by Cheng-Prusoff
T1 construct: purchased Life Technologies PR9075A
T1 sequence (P36897 34-503): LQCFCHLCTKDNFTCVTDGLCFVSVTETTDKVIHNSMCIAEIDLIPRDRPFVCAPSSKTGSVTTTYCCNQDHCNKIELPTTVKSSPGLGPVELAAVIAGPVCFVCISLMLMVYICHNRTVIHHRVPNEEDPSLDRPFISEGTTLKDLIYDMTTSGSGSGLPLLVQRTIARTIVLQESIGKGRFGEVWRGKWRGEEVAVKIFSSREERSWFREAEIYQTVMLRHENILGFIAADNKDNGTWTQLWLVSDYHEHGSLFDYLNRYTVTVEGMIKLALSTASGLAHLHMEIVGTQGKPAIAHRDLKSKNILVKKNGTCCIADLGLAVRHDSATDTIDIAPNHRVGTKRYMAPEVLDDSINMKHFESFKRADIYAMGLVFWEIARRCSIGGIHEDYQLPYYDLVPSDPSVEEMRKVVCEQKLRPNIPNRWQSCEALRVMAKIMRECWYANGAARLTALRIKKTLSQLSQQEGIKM
Summary of the method: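 Compounds (10 μM to 25 pM) were preincubated 60 min at room temperature with enzyme, then reactions were started with ATP (125 μM stock, 5× final) and run 60 min at 37 °C. EDTA-containing Eu-anti-phospho-Topo IIα (Thr1342) antibody stopped the reaction; TR-FRET read at 665 nm. pIC50 from 4-parameter fit, converted to pKi via Cheng-Prusoff.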

[3] = inhibition of TGF-β stimulated pSMAD3 formation, BEAS-2B cells

Ki ([2]; read-out: ALK5 pKi (converted)) [nM]	SMILES	IC50 [1, 3] [nM]	IC50 ([1]; BEAS-2B) [nM]	Ki ([2]; ALK5 pKi) [nM]
0.0398 to 0.316	Cc1cccc(-c2n[nH]cc2-c2ccc3ncc(CCCN4CCN(C(C)C)CC4)cc3n2)n1 [Compound 615, 7-[3-(4-isopropylpiperazin-1-yl)propyl]-2-[3-(6-methyl-2-pyridyl)-1H-pyrazol-4-yl]-1,5-naphthyridine]	25.1 to 158		
0.398 to 3.16	Cc1cccc(-c2[nH]cnc2-c2ccc3ncc(NCC(=O)O)cc3c2)n1 [Compound 1162, 2-[[6-[5-(6-methyl-2-pyridyl)-1H-imidazol-4-yl]-3-quinolyl]amino]acetic acid]	200 to 1260		
0.0398 to 0.316	Cc1cccc(-c2[nH]cnc2-c2ccc3ncc(-c4cncc(C(=O)O[C@H]5CCNC5)c4)cc3c2)n1 [Compound 719, [(3S)-pyrrolidin-3-yl] 5-[6-[5-(6-methyl-2-pyridyl)-1H-imidazol-4-yl]-3-quinolyl]pyridine-3-carboxylate]	200 to 1260		
< 0.0316	Cc1cccc(-c2n[nH]cc2-c2ccc3ncc(-c4cnn(C5CNC5)c4)cc3n2)n1 [Compound 386, 7-[1-(azetidin-3-yl)pyrazol-4-yl]-2-[3-(6-methyl-2-pyridyl)-1H-pyrazol-4-yl]-1,5-naphthyridine]	25.1 to 158		
0.0398 to 0.316	Cc1cccc(-c2nn3c(c2-c2ccc4ncc(-c5cn[nH]c5)cc4n2)CNCC3)n1 [Compound 115, 2-(2-(6-Methylpyridin-2-yl)-4,5,6,7-tetrahydropyrazolo[1,5-a]pyrazin-3-yl)-7-(1H-pyrazol-4-yl)-1,5-naphthyridine]	25.1 to 158		
0.0398 to 0.316	Cc1cccc(-c2n[nH]cc2-c2ccc3ncc(N4CCCCC4)cc3n2)n1 [Compound 22, 2-[3-(6-methyl-2-pyridyl)-1H-pyrazol-4-yl]-7-(1-piperidyl)-1,5-naphthyridine]	25.1 to 158		
0.0398 to 0.316	Cc1cccc(-c2n[nH]cc2-c2ccc3nccc(N4CCNCC4)c3n2)n1 [Compound 856, 2-[3-(6-methyl-2-pyridyl)-1H-pyrazol-4-yl]-8-piperazin-1-yl-1,5-naphthyridine]	25.1 to 158		
0.0398 to 0.316	Cc1cccc(-c2[nH]cnc2-c2ccc3ncc(C4=CCC(C(=O)O[C@@H]5CCNC5)CC4)cc3c2)n1 (stereo partly drawn) [Compound 49, [(3R)-pyrrolidin-3-yl] 4-[6-[5-(6-methyl-2-pyridyl)-1H-imidazol-4-yl]-3-quinolyl]cyclohex-3-ene-1-carboxylate]	25.1 to 158		
0.0398 to 0.316	Cc1nc(-c2nc3ccccn3c2-c2ccc3ncc(N4CCCNCC4)cc3n2)ccc1F [Compound 84, 7-(1,4-diazepan-1-yl)-2-[2-(5-fluoro-6-methyl-2-pyridyl)imidazo[1,2-a]pyridin-3-yl]-1,5-naphthyridine]	25.1 to 158		
< 0.0316	Cc1cccc(-c2[nH]cnc2-c2ccc3ncc(C4=CCC(NCc5ccccc5)CC4)cc3c2)n1 (stereo not drawn) [Compound 252, N-benzyl-4-[6-[5-(6-methyl-2-pyridyl)-1H-imidazol-4-yl]-3-quinolyl]cyclohex-3-en-1-amine]	25.1 to 158		
0.0398 to 0.316	Cc1cccc(-c2[nH]cnc2-c2ccc3ncc(NCCC4CNC4)cc3c2)n1 [Compound 116, N-[2-(azetidin-3-yl)ethyl]-6-[5-(6-methyl-2-pyridyl)-1H-imidazol-4-yl]quinolin-3-amine]	25.1 to 158		
< 0.0316	Cc1cccc(-c2n[nH]cc2-c2ccc3ncc(N4CCC(N5CCCC5)CC4)cc3n2)n1 [Compound 335, 2-(3-(6-methylpyridin-2-yl)-1H-pyrazol-4-yl)-7-(4-(pyrrolidin-1-yl)piperidin-1-yl)-1,5-naphthyridine]	25.1 to 158		
< 0.0316	COC(=O)c1coc(-c2cnc3ccc(-c4c[nH]nc4-c4cccc(C)n4)nc3c2)n1 [Compound 582, methyl 2-[6-[3-(6-methyl-2-pyridyl)-1H-pyrazol-4-yl]-1,5-naphthyridin-3-yl]oxazole-4-carboxylate]	25.1 to 158		
0.0398 to 0.316	Cc1cccc(-c2[nH]ncc2-c2ccc3ncc(C(=O)OCCN4CC[C@@H](N)C4)cc3c2)n1 [Compound 1211, 2-[(3R)-3-aminopyrrolidin-1-yl]ethyl 6-[5-(6-methyl-2-pyridyl)-1H-pyrazol-4-yl]quinoline-3-carboxylate]	25.1 to 158		
0.0398 to 0.316	Cc1nc(-c2n[nH]cc2-c2ccc3ncc(-c4[nH]nc5c4CCNC5)cc3n2)ccc1F [Compound 7, 2-[3-(5-fluoro-6-methyl-2-pyridyl)-1H-pyrazol-4-yl]-7-(4,5,6,7-tetrahydro-2H-pyrazolo[3,4-c]pyridin-3-yl)-1,5-naphthyridine]	200 to 1260		
0.398 to 3.16	Cc1cccc(-c2n[nH]c(N)c2-c2ccc3ncc(N4CCNCC4)cc3n2)n1 [Compound 238, 3-(6-methyl-2-pyridyl)-4-(7-piperazin-1-yl-1,5-naphthyridin-2-yl)-1H-pyrazol-5-amine]	1580 to 10000		
0.0398 to 0.316	Cc1cccc(-c2n[nH]cc2-c2ccc3nccc(NC(=O)CN4CCOCC4)c3n2)n1 [Compound 840, N-[6-[3-(6-methyl-2-pyridyl)-1H-pyrazol-4-yl]-1,5-naphthyridin-4-yl]-2-morpholino-acetamide]	25.1 to 158		
0.0398 to 0.316	Cc1cccc(-c2[nH]ncc2-c2ccc3ncc(C(=O)OC[C@H]4CCCCN4)cc3c2)n1 (racemic) [Compound 1194, [rac-(2R)-2-piperidyl]methyl 6-[5-(6-methyl-2-pyridyl)-1H-pyrazol-4-yl]quinoline-3-carboxylate]	< 20		
< 0.0316	Cc1cccc(-c2[nH]cnc2-c2ccc3ncc(-c4cccc(C(=O)OCC5CNC5)n4)cc3c2)n1 [Compound 1044, azetidin-3-ylmethyl 6-[6-[5-(6-methyl-2-pyridyl)-1H-imidazol-4-yl]-3-quinolyl]pyridine-2-carboxylate]	200 to 1260		
0.0398 to 0.316	CNCc1cncc(-c2cnc3ccc(-c4c[nH]nc4-c4cccc(C)n4)nc3c2)c1 [Compound 214, N-methyl-1-[5-[6-[3-(6-methyl-2-pyridyl)-1H-pyrazol-4-yl]-1,5-naphthyridin-3-yl]-3-pyridyl]methanamine]	25.1 to 158		
	Cc1cccc(-c2n[nH]cc2-c2ccc3ncc(C4=C[C@H]5CC[C@@H](C4)N5)cc3n2)n1 (racemic) [Compound 161, 2-[3-(6-methyl-2-pyridyl)-1H-pyrazol-4-yl]-7-[rac-(1R,5S)-8-azabicyclo[3.2.1]oct-2-en-3-yl]-1,5-naphthyridine]		25.1 to 158	0.0398 to 0.316
0.0398 to 0.316	Cc1cccc(-c2n[nH]cc2-c2ccc3ncc(N4CCN[C@H](C)C4)cc3n2)n1 [Compound 249, 7-[(3R)-3-methylpiperazin-1-yl]-2-[3-(6-methyl-2-pyridyl)-1H-pyrazol-4-yl]-1,5-naphthyridine]	25.1 to 158		
0.398 to 3.16	Cc1cccc(-c2n[nH]cc2-c2ccc3nccc(CN4CCC(N5CCOCC5)CC4)c3n2)n1 [Compound 849, 4-[1-[[6-[3-(6-methyl-2-pyridyl)-1H-pyrazol-4-yl]-1,5-naphthyridin-4-yl]methyl]-4-piperidyl]morpholine]	200 to 1260		

SMILES	Ki ([2]; read-out: ALK5 pKi (converted)) [nM]	IC50 [1, 3] [nM]	IC50 ([1]; BEAS-2B) [nM]	Ki ([2]; ALK5 pKi) [nM]
Cc1cccc(-c2[nH]cnc2-c2ccc3ncc(C4=CCNCC4)cc3c2)n1 [Compound 472, 6-[5-(6-methyl-2-pyridyl)-1H-imidazol-4-yl]-3-(1,2,3,6-tetrahydropyridin-4-yl)quinoline]	< 0.0316	< 20		
